Data on 3 compounds can be found in patent US5235045A, “Non-azo naphthalimide dyes” (priority 1992, dated 1993).

A short description of data set [1]: Cell viability in absence of light (trypan blue exclusion). The data set is classed as cell-based, human. Particulars: dark. The text has this:
(§1) Following the protocol of (1), above, H9 cells were stained with Compound lb, and the technique of fluorescent microscopy was used to determine visually the sites of localization of dye fluorescence in living cells. Specifically, H9 cells were counted with a hemocytometer and diluted to 5×10^5 /ml. […] Cytospin slides of the cell suspensions were made and they were examined with the fluorescence microscope (Olympus AH-2) using B excitation plus a 460 nm interference excitation filter and a 495 nm emission filter. The cells were also counted with a hemocytometer and their viability determined (see below). […] The former may reflect the diffusional component of the dye incorporation, or may reflect binding in the ER membrane. The latter may indicate lysosomal localization of pinocytosed dye as occurs with Lucifer Yellow.
(§2) Cell viability was determined using dye incorporated according to the protocol directly above. Viability was determined using a trypan blue dye exclusion test in which "live" cells with competent cell membranes exclude the dye. Table 5 summarizes the data obtained using cells exposed to Compound 1b in culture medium, and Table 6 summarizes data obtained using cells exposed to Compound VII.

In data set [2] the test system is H9 cells. Described as above. Particulars: dark. The class given is cell-based, human.
Excerpt: as §1, §2

Data set [3] deals with Vero cells. The experiment in a line: Cellular toxicity in Vero cells (viral-medium suspension samples). The class given is cell-based. The procedure:
(§3) Each sample including the stock virus were assayed on Vero cells for PFU/ml of HSV-1. The assay consisted of growing Vero cells in minimal essential medium with Hanks balanced salt solution supplemented with 10% fetal bovine serum, L-glutamine and antibiotics. Hepes buffer (2%) was added for growth in open plates (twelve well microplates from CO-star). Ten fold dilutions of each sample were prepared and 0.1 ml of the appropriate dilution for each individual sample was adsorbed at 37° C. for 1.5 hr. on a cell monolayer from which the growth medium had been removed. After the adsorption period, the cell monolayer was washed and an overlay consisting of equal volumes of 2X strength L-15 medium and 2% methylcellulose was added. Following an appropriate incubation time at 37° C. (about 4 days), the overlay medium was removed. Monolayers were fixed with methanol and stained with giemsa to elaborate the presence of plaques. The plaques were counted using a dissecting microscope at a magnification of 20X.
as §3, with “Co-star).” for “CO-star).”

Data set [4] can be described thus: Bleaching and recovery of fluorescence in aqueous suspension of Cremophor EL. The data set is classed as physicochemical. Particulars: for % Un-irradiated Fluorescence / initially activated species permanently losing fluorescence / initially activated species recovering fluorescence: Cremophor EL. The procedure: A 14.9 millimolar stock solution of Ed6Br in Cremophor EL was used to make 3 ml of a micellar Cremophor suspension having a concentration averaged over the entire sample volume of […]. A […] aliquot was removed and diluted with 2.9 ml of distilled water for measurement of fluorescence using an SLM 500C spectrofluorometer (excitation, 420 nm, emission, 520 nm). The 3 ml sample was divided into two 1.5 ml aliquots placed in quartz crusetts. One sample was irradiated with stirring with 420 # 5 nm filtered light from a xenon arc lamp with an irradiance of 20 mW/cm^2 and with the companion sample wrapped in aluminum foil (dark control) and maintained alongside of the irradiated sample. […] After the entire light treatment, both the illuminated and dark control samples were divided into two equal aliquots and held pairwise (dark+previously illuminated) at 4° C. and 20° C. in the absence of light. Aliquots of […] were taken from each sample after 18 and 43 hr and their fluorescence emission values determined using the SLM 500C instrument immediately after sampling.
In an experiment eventually following the protocol described immediately above in Part I (for Ed6Br), the light-induced bleaching of DiEd6Br with 200 J/cm^2 light exposure and recovery of its fluorescence upon standing in the dark at 22° C. were determined.

[5] abbreviates: 1 μM, 100% human plasma 4 hours, 1 hour after.
The mark [6] stands for this setting: 5 μM, 100% human plasma 4 hours, 1 hour after.
The mark [7] stands for this setting: 25 μM, 100% human plasma 4 hours, 1 hour after.
The mark [8] stands for this setting: 1 μM, medium 24 hours, 1 hour after.
Setting [9] is: 10 μM, medium 24 hours, 1 hour after.
Setting [10] is: 25 μM, medium 24 hours, 1 hour after.
Setting [11] is: 50 μM, medium 24 hours, 1 hour after.
Where [12] appears, read: 5 μM, medium 1.5 hours, counted 2.5 hours after.
[13] abbreviates: 25 μM, medium 1.5 hours, counted 2.5 hours after.

With `CCCCCCNc1c(Br)cc2c3c(cccc13)C(=O)N(CCCCCC)C2=O` [Compound VII, 3-bromo-4-(hexyl)amino-N-hexyl-1,8-naphthalimide], the viability at 4 h, 1 µM in data set [1] (setting [5]) was 95.9%. The viability at 4 h, 5 µM in data set [1] (setting [6]) was 94.7%. The compound further showed a viability at 4 h, 25 µM in data set [1] (setting [7]) of 95.5%. In data set [1] (human, 1 μM, medium 24 hours, 1 hour after), this compound gave a viability at 24 h, 1 µM of 86.8%. Further, in data set [1] (human, 10 μM, medium 24 hours, 1 hour after), the viability at 24 h, 10 µM was found to be 80%. This compound also registered a viability at 24 h, 25 µM in data set [1] (human, 25 μM, medium 24 hours, 1 hour after) of 79.6%. For the same compound, the viability at 24 h, 50 µM in data set [1] (human, 50 μM, medium 24 hours, 1 hour after) is 42.5%. Besides, the dead cells is recorded as 12 in data set [2] (setting [5]); 23 in data set [2] (setting [8]); 16 in data set [2] (setting [6]); 26 in data set [2] (setting [9]); 16 in data set [2] (setting [7]); 38 in data set [2] (setting [10]). The compound also registered a dead cells in data set [2] (setting [11]) of 128. Besides, the live cells in data set [2] (setting [5]) was 280; in data set [2] (setting [8]) it was 151; in data set [2] (setting [6]), 286; in data set [2] (setting [9]) it was 104; in data set [2] (setting [7]) it was 339; in data set [2] (setting [10]), 148. The compound further returned a live cells in data set [2] (setting [11]) of 124. Besides, the cellular toxicity result in data set [3] (Ed6Br, 8 concentrations, not irradiated) is listed as “no evidence of cellular toxicity”. Moreover, the “cellular toxicity of not previously irradiated samples” value in data set [3] (two concentrations, vs irradiated samples) is reported as “significantly less cellular toxicity than the irradiated samples”. The “% Un-irradiated Fluorescence” value in data set [4] (0 J/cm^2) was determined as 100%; in data set [4] (10 J/cm^2, 420 nm), 97.8%; in data set [4] (25 J/cm^2, 420 nm), 96.2%; in data set [4] (50 J/cm^2, 420 nm), 74.9%; in data set [4] (90 J/cm^2, 420 nm) it was 48.7%; in data set [4] (200 J/cm^2, 420 nm), 18.2%. Besides, the “Fluorescence Recovery in Dark” value was found to be 18.2% in data set [4] (0 hour, 4° C.); 18.2% in data set [4] (0 hour, 22° C.); 24.6% in data set [4] (18 hour, 4° C.); 39.4% in data set [4] (18 hour, 22° C.); 36.8% in data set [4] (43 hour, 4° C.); 56.7% in data set [4] (43 hour, 22° C.). Moreover, the “irradiation induced loss of fluorescent intensity” value in data set [4] (200 J/cm^2) is reported as “about 80%”. In addition, the “initially activated species permanently losing fluorescence” value in data set [4] is given as “Approximately 50%”. In data set [4], the “initially activated species recovering fluorescence” value is recorded as “Approximately 50%”. Further, in data set [4] (after 200 J/cm^2), the “ultimate fluorescent intensity regained, of initial” value was “approximately 40%”. The “change of fluorescence emission intensity in absence of light” value in data set [4] (dark) is recorded as “lack of change of the value of fluorescence emission intensity”.

With `CCCCCCN1C(=O)c2cccc3c(NCCNC(=O)CCCCC(=O)NCCNc4c(Br)cc5c6c(cccc46)C(=O)N(CCCCCC)C5=O)c(Br)cc(c23)C1=O` [Compound XLIV], the cellular toxicity entry in data set [3] (DiEd6Br, 2 concentrations, not irradiated (Table 18 experiment)) was “no evidence of cellular toxicity”; in data set [3] (DiEd6Br, 8 concentrations, not irradiated (Table 15 experiment)) it was “no evidence of cellular toxicity”; in data set [3] (DiEd6Br, 8 concentrations, not irradiated (Table 16 experiment)), “no evidence of cellular toxicity”. In data set [4] (200 J/cm^2, 420 nm), the “fluorescence, % of initial (dark) value” came to 32.2%. Further, the “fluorescence recovered, % of initial value” in data set [4] (70 hours at 22° C.) was found to be 62.7%; in data set [4] (166 hours at 22° C.) it was 64.0%. In data set [4], the “initially activated species permanently losing fluorescence” value is “Approximately 50%”. In data set [4], the “initially activated species recovering fluorescence” value is “Approximately 50%”.

For `CCCCCCNc1ccc2c3c(cccc13)C(=O)N(CCCCCC)C2=O` [Compound 1b, 4-(hexyl)amino-N-hexyl-1,8-naphthalimide], in data set [1] (human, 5 μM, medium 1.5 hours, counted 2.5 hours after), the viability at 1.5 h, 5 µM stood at 96.7%. In addition, the viability at 1.5 h, 25 µM in data set [1] (human, 25 μM, medium 1.5 hours, counted 2.5 hours after) stood at 97.1%. In data set [2] (setting [12]), this compound returned a dead cells of 4 and a live cells of 116. In data set [2] (setting [13]), this compound yielded a dead cells of 4 and a live cells of 136.
